Measured values from patent US20050148598A1, “Trioxane derivatives” (priority 2001, published 2005).
Like-named read-outs stand apart in the source and are kept apart here.

Tests used:
[1] = tested on: K1 strain of P. falciparum; assay: 48-h [3H]-hypoxanthine incorporation antimalarial sensitivity assay, K1 strain; type: cell-based
Description: (§1) The antimalarial activity of the new compounds was assessed using two strains of P. falciparum from Thailand: (a) the uncloned K1 strain which is known to be CQ resistant and (b) the HB3 strain which is sensitive to all antimalarials. Parasites were maintained in continuous culture using the method of Trager and Jenson (J. Parasitol., 1977, 63, 883-886). Cultures were grown in flasks containing human erythrocytes (2-5%) with parasitemia in the range of 1% to 10% suspended in RPMI 1640 medium supplemented with 25 mM HEPES and 32 mM NaHCO3, and 10% human serum (complete medium). Cultures were gassed with a mixture of 3% O2, 4% CO2 and 93% N2.
(§2) Antimalarial activity was assessed with an adaption of the 48-h sensitivity assay of Desjardins et al. (Antimicrob. Agents. Chemother., 1979, 16, 710-718) using [^3H]-hypoxanthine incorporation as an assessment of parasite growth. Stock drug solutions were prepared in 100% dimethylsulphoxide (DMSO) and diluted to the appropriate concentration using complete medium. Assays were performed in sterile 96-well microtitre plates, each plate containing 200 μl of parasite culture (2% parasitemia, 0.5% haematocrit) with or without 10 μl drug dilutions. Each drug was tested in triplicate and parasite growth was compared to control wells (which constituted 100% parasite growth). After 24-h incubation at 37° C., 0.5 μCi hypoxanthine was added to each well. Cultures were incubated for a further 24 h before they were harvested onto filter-mats, dried for 1 h at 55° C. and counted using a Wallac 1450 Microbeta Trilux Liquid scintillation and luminescence counter. IC50 values were calculated by interpolation of the probit transformation of the log dose—response curve.

[2] = tested on: HB3 strain of P. falciparum; assay: 48-h [3H]-hypoxanthine incorporation antimalarial sensitivity assay, HB3 strain; type: cell-based; details: HB3 strain (sensitive) of P. falciparum in vitro
Description: as §1, §2

NCI-H460 (Lung) = assay: NCI 3-cell line anticancer assay, NCI-H460; type: cell-based; details: 1.00E−04 Molar, 48 hours, sulforhodamine B
Description: (§3) The anticancer activity of these compounds of the present invention was also assessed, by NCI 3-cell line anticancer assay. In this protocol, each cell line is inoculated and preincubated on a microtiter plate. Test agents are then added at a single concentration and the culture incubated for 48 hours. End-point determinations are made with sulforhodamine B, a protein-binding dye. Results for each test agent are reported as the percentage of growth of the treated cells when compared to the untreated control cells. Compounds which reduce the growth of any one of the cells lines to 32% or less (negative numbers indicate cell kill) are passed on for evaluation in the full panel of 60 cell lines over a 5-log dose range.

MCF7 (Breast) = assay: NCI 3-cell line anticancer assay, MCF7; type: cell-based; details: 1.00E−04 Molar, 48 hours, sulforhodamine B
Description: as §3

SF-268 (CNS) = assay: NCI 3-cell line anticancer assay, SF-268; type: cell-based; details: 1.00E−04 Molar, 48 hours, sulforhodamine B
Description: as §3

L1210 cells = details: cited from earlier work
[3] = K1 strain (CQ resistant) of P. falciparum in vitro, read-out: IC50
[4] = Plasmodium falciparum, K1 strain (CQ resistant) of P. falciparum in vitro, read-out: IC50

CC1CCC2C(C)C(OCc3ccc(CN4CCN(c5ccc(F)cc5)CC4)cc3)OC3OC4(C)CCC1C32OO4 (stereo not drawn) [Compound 13c, 10β-[[4-[(4-Fluorophenylpiperazyl)methyl]benzyl]oxy]dihydroartemisnin]
IC50 [1, 3]: 6.3 nM
IC50 [2]: 2.3 nM
percentage of growth of the treated cells compared to untreated control cells, NCI-H460 (Lung) (NCI-H460 (Lung)): 12%
percentage of growth of the treated cells compared to untreated control cells, MCF7 (Breast) (MCF7 (Breast)): 13%
percentage of growth of the treated cells compared to untreated control cells, SF-268 (CNS) (SF-268 (CNS)): 27%

CC1CCC2C(C)C(OCc3cccc(CN4CCN(c5ccc([N+](=O)[O-])cc5)CC4)c3)OC3OC4(C)CCC1C32OO4 (stereo not drawn) [Compound 13g, 10β-[[3-[(4-Nitrophenylpiperazyl)methyl]benzyl]oxy]dihydroartemisinin]
IC50 [1, 3]: 4.3 nM
IC50 [2]: 4.3 nM

CC1CCC2C(C)C(OCc3cccc(CN4CCN(c5ccccc5)CC4)c3)OC3OC4(C)CCC1C32OO4 (stereo not drawn) [Compound 13f, 10β-[[3-[(Phenylpiperazyl)methyl]benzyl]oxy]dihydroartemisinin]
IC50 [1, 3]: 6.6 nM
IC50 [2]: 3.4 nM

CCNCCCNCCCNCCCNCC [DENSPM]
cytotoxic effects in L1210 cells (L1210 cells): 1.3 µM

CCNCCCNCCCCNCCCNCC [DESPM]
cytotoxic effects in L1210 cells (L1210 cells): 0.2 µM

C[C@@H]1CCC2[C@@H](C)[C@@H](OCc3ccc(CN4CCN(Cc5ccccc5)CC4)cc3)OC3O[C@@]4(C)CC[C@@H]1[C@]32OO4 (stereo partly drawn) [Compound 13e, 10β-[[4-[(Benzylpiperazyl)methyl]benzyl]oxy]dihydroartemisinin]
IC50 [1, 4]: 3.8 nM
IC50 ([2]; Plasmodium falciparum): 1.8 nM

CC1CCC2C(C)C(OCc3ccc(CN4CCN(c5ccc(C(F)(F)F)cc5)CC4)cc3)OC3OC4(C)CCC1C32OO4 (stereo not drawn) [Compound 13d, 10β-[[4-[(4-Trifluoromethylphenylpiperazyl)methyl]benzyl]oxy]dihydroartemisinin]
IC50 [1, 3]: 12.5 nM
IC50 [2]: 8.1 nM

10β-[[4-[Phenylpiperazyl)methyl]benzyl]dihydroartemisinin [Compound 13a]
IC50 [1, 3]: 8.2 nM

CCN(CC)CCCC(C)Nc1ccnc2cc(Cl)ccc12 (stereo not shown) [Chloroquine, chloroquine, reference compound]
IC50 ([1]; Plasmodium falciparum, K1): 255 nM

C[C@H]1[C@@H](OCc2cccc(CN3CCN(c4ccc(Cl)cc4)CC3)c2)O[C@@H]2O[C@@]3(C)CC[C@H]4[C@H](C)CC[C@@H]1[C@@]24OO3 [Compound 13h, 10β-[[3-[(4-Chlorophenylpiperazyl)methyl]benzyl]oxy]dihydroartemisinin]
IC50 [1, 3]: 13.3 nM
percentage of growth of the treated cells compared to untreated control cells, NCI-H460 (Lung) (NCI-H460 (Lung)): 22%
percentage of growth of the treated cells compared to untreated control cells, MCF7 (Breast) (MCF7 (Breast)): 11%
percentage of growth of the treated cells compared to untreated control cells, SF-268 (CNS) (SF-268 (CNS)): 31%

CCNCCCCNCCCCNCCCCNCC [DEHSPM]
cytotoxic effects in L1210 cells (L1210 cells): 0.06 µM

CC1CCC2C(C)C(OCc3ccc(CN4CCN(c5ccc([N+](=O)[O-])cc5)CC4)cc3)OC3OC4(C)CCC1C32OO4 (stereo not shown) [Compound 13b]
IC50 [1, 3]: 138 nM

CO[C@H]1O[C@@H]2O[C@@]3(C)CC[C@H]4[C@H](C)CC[C@@H]([C@H]1C)[C@@]24OO3 [Artemether, artemether, reference compound]
IC50 [1, 4]: 6.5 nM
IC50 ([2]; Plasmodium falciparum): 9.2 nM

CC1CCC2C(C)C(OCc3cccc(CN4CCN(c5ccc(F)cc5)CC4)c3)OC3OC4(C)CCC1C32OO4 (stereo not drawn) [Compound 13j, 10β-[[3-[(4-Fluorophenylpiperazyl)methyl]benzyl]oxy]dihydroartemisinin]
IC50 [1, 3]: 12.6 nM
IC50 [2]: 12.6 nM

CC1CCC2C(C)C(OCc3cccc(CN4CCN(c5cccc(C(F)(F)F)c5)CC4)c3)OC3OC4(C)CCC1C32OO4 (stereo not drawn) [Compound 13i, 10β-[[3-[(3-Trifluoromethylphenylpiperazyl)methyl]benzyl]oxy]dihydroartemisinin]
IC50 [1, 3]: 22.5 nM
percentage of growth of the treated cells compared to untreated control cells, NCI-H460 (Lung) (NCI-H460 (Lung)): 15%
percentage of growth of the treated cells compared to untreated control cells, MCF7 (Breast) (MCF7 (Breast)): 10%
percentage of growth of the treated cells compared to untreated control cells, SF-268 (CNS) (SF-268 (CNS)): 29%
